Read-outs that look alike come from different tables or passages of the source. *1 amine or outer side, *2 acyl side, *3 side chain or, on linkers, in order; H or OH if unused. Where a SMILES comes first, the peptide text is derived from it. Side-chain parts run from the residue outwards. [ ]: non-standard residue; d: D form. The star is where a group is joined. αMePhe(2-F) = C[C@](N)(Cc1ccccc1F)C(=O)O; γGlu = O=C(O)[C@H](CCC(=O)[*:2])N[*:1]; αMeY = C[C@](N)(Cc1ccc(O)cc1)C(=O)O; αMeF = C[C@](N)(Cc1ccccc1)C(=O)O; 4Pal = N[C@@H](Cc1ccncc1)C(=O)O; αMeL = CC(C)C[C@](C)(N)C(=O)O; Lauroyl = CCCCCCCCCCCC(=O)*; Orn = NCCC[C@H](N)C(=O)O; AEEA = NCCOCCOCC(=O)O; Aib = CC(C)(N)C(=O)O
Columns and labels:
Assay type in all cases: cell-based
hGCGR = biological target: T1, hGCGR (Homo sapiens, UniProt P47871); test: Functional cAMP formation (HTRF) in HEK-293 clonal cells expressing hGCGR, 0.1% bovine casein, without or with 1.0% human serum albumin
T1 construct: expressed in transfected cells
Outline: (§1)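 Cells were stimulated with peptide for 30 min at 37° C, then intracellular cAMP was measured by competitive HTRF (665/620 nm ratio) and converted to nM using a cAMP standard curve. Relative EC50 and Emax came from four-parameter logistic fits of percent maximal response against peptide concentration.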

hGLP-1R = hGLP-1R (Homo sapiens, UniProt P43220); test: Functional cAMP formation (HTRF) in HEK-293 clonal cells expressing hGLP-1R, 0.1% bovine casein, without or with 1.0% human serum albumin; design: expressed in transfected cells; details: for EC50: geometric mean
Outline: as §1

hGIPR = biological target: T2, hGIPR (Homo sapiens, UniProt P48546); test: Functional cAMP formation (HTRF) in HEK-293 clonal cells expressing hGIPR, 0.1% bovine casein, without or with 1.0% human serum albumin; details: 37° C.; for EC50: geometric mean, read-out: hGIPR EC50, nM (SEM, n)
T2 construct: expressed in transfected cells
T2 sequence (P48546 22-466): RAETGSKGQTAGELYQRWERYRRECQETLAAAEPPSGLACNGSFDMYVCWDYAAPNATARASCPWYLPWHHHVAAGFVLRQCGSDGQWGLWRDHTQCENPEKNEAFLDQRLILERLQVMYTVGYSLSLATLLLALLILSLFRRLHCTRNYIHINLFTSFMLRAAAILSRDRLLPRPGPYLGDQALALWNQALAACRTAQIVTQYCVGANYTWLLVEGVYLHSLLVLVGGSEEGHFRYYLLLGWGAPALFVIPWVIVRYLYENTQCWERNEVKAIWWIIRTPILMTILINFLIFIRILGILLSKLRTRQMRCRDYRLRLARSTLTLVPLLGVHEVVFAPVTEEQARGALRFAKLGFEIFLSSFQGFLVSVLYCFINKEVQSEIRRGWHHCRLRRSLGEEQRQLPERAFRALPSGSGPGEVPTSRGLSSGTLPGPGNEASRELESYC
Outline: as §1

[1] = 0.1% bovine casein and 1.0% human serum albumin, 37° C., geometric mean, read-out: hGCGR EC50, nM (SEM, n)
[2] = cAMP, 37° C., 0.1% bovine casein (no human serum albumin), geometric mean, read-out: hGCGR EC50, nM (SEM, n)
[3] = cAMP, 37° C., 0.1% bovine casein (no human serum albumin), read-out: hGLP-1R EC50, nM (SEM, n)

Chain of hGLP-1R (P43220 24-463): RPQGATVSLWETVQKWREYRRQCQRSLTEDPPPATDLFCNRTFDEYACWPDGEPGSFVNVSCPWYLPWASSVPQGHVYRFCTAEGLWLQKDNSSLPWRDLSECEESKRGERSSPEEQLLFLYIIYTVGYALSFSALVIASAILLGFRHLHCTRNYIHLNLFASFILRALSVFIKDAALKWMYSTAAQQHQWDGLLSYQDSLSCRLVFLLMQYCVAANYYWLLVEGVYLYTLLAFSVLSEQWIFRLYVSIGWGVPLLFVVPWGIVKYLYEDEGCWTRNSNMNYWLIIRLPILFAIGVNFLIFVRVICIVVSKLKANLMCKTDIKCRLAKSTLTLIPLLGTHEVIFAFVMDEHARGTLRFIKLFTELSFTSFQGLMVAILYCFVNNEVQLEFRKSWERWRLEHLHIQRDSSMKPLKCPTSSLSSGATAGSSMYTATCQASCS
T1 sequence (P47871 26-477): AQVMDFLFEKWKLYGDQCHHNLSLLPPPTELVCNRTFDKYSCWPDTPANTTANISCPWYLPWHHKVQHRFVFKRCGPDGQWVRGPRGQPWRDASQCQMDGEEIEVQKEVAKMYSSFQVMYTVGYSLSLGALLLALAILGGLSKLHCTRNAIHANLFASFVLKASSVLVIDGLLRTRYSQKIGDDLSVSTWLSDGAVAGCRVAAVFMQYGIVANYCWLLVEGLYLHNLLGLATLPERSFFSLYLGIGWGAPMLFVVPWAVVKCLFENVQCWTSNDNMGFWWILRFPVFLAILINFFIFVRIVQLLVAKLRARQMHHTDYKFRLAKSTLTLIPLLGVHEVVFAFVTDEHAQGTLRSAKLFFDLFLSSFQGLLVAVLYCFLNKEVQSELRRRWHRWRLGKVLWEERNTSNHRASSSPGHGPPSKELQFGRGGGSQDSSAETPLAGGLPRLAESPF

Structure (SMILES): CCCCCCCCCCCC(=O)N[C@@H](CCC(=O)NCCOCCOCC(=O)NCCOCCOCC(=O)NCCCC[C@H](NC(=O)[C@H](CCCN)NC(=O)[C@H](CC(=O)O)NC(=O)[C@H](CC(C)C)NC(=O)[C@](C)(CC(C)C)NC(=O)[C@@H](NC(=O)[C@H](CO)NC(=O)[C@H](CCCCNC(=O)COCCOCCNC(=O)COCCOCCNC(=O)CC[C@H](NC(=O)CCCCCCCCCCC)C(=O)O)NC(=O)[C@H](CC(=O)O)NC(=O)[C@H](CO)NC(=O)[C@@H](NC(=O)[C@](C)(Cc1ccccc1F)NC(=O)[C@@H](NC(=O)CNC(=O)[C@H](CCC(=O)O)NC(=O)C(C)(C)NC(=O)[C@@H](N)Cc1ccc(O)cc1)[C@@H](C)O)[C@@H](C)O)[C@@H](C)CC)C(=O)N[C@@H](C)C(=O)N[C@@H](CCC(N)=O)C(=O)NC(C)(C)C(=O)N[C@@H](CCC(=O)O)C(=O)N[C@@H](Cc1ccccc1)C(=O)N[C@H](C(=O)N[C@H](CCC(=O)O)C(=O)N[C@@](C)(Cc1ccc(O)cc1)C(=O)N[C@@H](CC(C)C)C(=O)N[C@H](C(=O)N[C@@H](CCC(=O)O)C(=O)NCC(=O)NCC(N)=O)[C@@H](C)CC)[C@@H](C)CC)C(=O)O [Example 294] (H-Y[Aib]EGT[αMePhe(2-F)]TSDK([AEEA-AEEA-γGlu-Lauroyl])SI[αMeL]LD[Orn]K([AEEA-AEEA-γGlu-Lauroyl])AQ[Aib]EFI[dE][αMeY]LIEGG-NH2)
- EC50 (hGCGR; [1]): > 9950 nM
- EC50 (hGCGR; [2]): > 9950 nM
- EC50 (hGLP-1R; 0.1% bovine casein and 1.0% human serum albumin, 37° C., read-out: hGLP-1R EC50, nM (SEM, n)): 6.26 nM
- EC50 (hGLP-1R; [3]): 0.0665 nM
- EC50 (hGIPR; 0.1% bovine casein and 1.0% human serum albumin): 0.833 nM
- Emax (hGIPR; HEK293, cAMP, 0.1% bovine casein, percent of maximal response to GIP(1-42)NH2, arithmetic mean, read-out: hGIPR Emax, % ± SEM): 105%
- EC50 (hGIPR; cAMP, 0.1% bovine casein (no human serum albumin)): 0.00615 nM

Structure (SMILES): CC[C@H](C)[C@H](NC(=O)[C@H](CC(C)C)NC(=O)[C@](C)(Cc1ccc(O)cc1)NC(=O)[C@H](CCCCNC(=O)[C@@H](N)CCCCNC(=O)CC[C@H](NC(=O)CCCCCCCCCCCCC(=O)O)C(=O)O)NC(=O)[C@@H](NC(=O)[C@H](Cc1ccccc1)NC(=O)[C@H](CCC(=O)O)NC(=O)C(C)(C)NC(=O)[C@H](CCC(N)=O)NC(=O)[C@H](C)NC(=O)[C@H](CCCCNC(=O)[C@@H](N)CCCCNC(=O)CC[C@H](NC(=O)CCCCCCCCCCCCC(=O)O)C(=O)O)NC(=O)[C@H](CCCN)NC(=O)[C@H](CC(=O)O)NC(=O)[C@H](CC(C)C)NC(=O)[C@](C)(CC(C)C)NC(=O)[C@@H](NC(=O)C(C)(C)NC(=O)[C@@H](NC(=O)[C@H](CC(=O)O)NC(=O)[C@H](CO)NC(=O)[C@@H](NC(=O)[C@](C)(Cc1ccccc1F)NC(=O)[C@@H](NC(=O)CNC(=O)[C@H](CCC(=O)O)NC(=O)C(C)(C)NC(=O)[C@@H](N)Cc1ccc(O)cc1)[C@@H](C)O)[C@@H](C)O)C(C)C)[C@@H](C)CC)[C@@H](C)CC)C(=O)N[C@@H](CCC(=O)O)C(=O)NCC(=O)NCC(=O)N1CCC[C@H]1C(=O)N[C@@H](CO)C(=O)N[C@@H](CO)C(=O)NCC(=O)N[C@@H](C)C(=O)N1CCC[C@H]1C(=O)N1CCC[C@H]1C(=O)N1CCC[C@H]1C(=O)N[C@@H](CO)C(N)=O [Example 167]
- EC50 (hGCGR; hGCGR EC50, nM (SEM, n), cAMP, incubated at 37° C., 0.1% bovine casein (no human serum albumin), geometric mean): > 9950 nM
- Emax (hGLP-1R; HEK293, read-out: hGLP-1R Emax, % ± SEM, percent of maximal response to GLP-1(7-36)NH2, 37° C., 0.1% bovine casein, arithmetic mean): 91.4 ± 3.21%
- EC50 (hGLP-1R; hGLP-1R EC50, nM (SEM, n), cAMP, incubated at 37° C., 0.1% bovine casein (no human serum albumin)): 0.217 nM

Structure (SMILES): CC[C@H](C)[C@H](NC(=O)[C@H](CC(C)C)NC(=O)[C@](C)(Cc1ccc(O)cc1)NC(=O)[C@@H](CCC(=O)O)NC(=O)[C@@H](NC(=O)[C@H](Cc1ccccc1)NC(=O)[C@H](CCC(=O)O)NC(=O)C(C)(C)NC(=O)[C@H](CCC(N)=O)NC(=O)[C@H](C)NC(=O)[C@H](CCCCNC(=O)COCCOCCNC(=O)COCCOCCNC(=O)CC[C@H](NC(=O)CCCCCCCCCCCCC(=O)O)C(=O)O)NC(=O)[C@H](CCCN)NC(=O)[C@H](CC(=O)O)NC(=O)[C@H](CC(C)C)NC(=O)[C@](C)(CC(C)C)NC(=O)[C@@H](NC(=O)[C@H](CO)NC(=O)C1(NC(=O)[C@H](CC(=O)O)NC(=O)[C@H](CO)NC(=O)[C@@H](NC(=O)[C@](C)(Cc2ccccc2F)NC(=O)[C@@H](NC(=O)CNC(=O)[C@H](CCC(=O)O)NC(=O)C(C)(C)NC(=O)[C@@H](N)Cc2ccc(O)cc2)[C@@H](C)O)[C@@H](C)O)CCCC1)[C@@H](C)CC)[C@@H](C)CC)C(=O)N[C@@H](CCC(=O)O)C(=O)NCC(=O)NCC(=O)N[C@@H](CCCCNC(=O)COCCOCCNC(=O)COCCOCCNC(=O)CC[C@H](NC(=O)CCCCCCCCCCCCC(=O)O)C(=O)O)C(=O)N[C@@H](CO)C(=O)N[C@@H](CO)C(=O)NCC(=O)N[C@@H](C)C(=O)N1CCC[C@H]1C(=O)N1CCC[C@H]1C(=O)N1CCC[C@H]1C(=O)N[C@@H](CO)C(N)=O [Example 53]
- EC50 (hGCGR; [1]): > 9950 nM
- EC50 (hGCGR; cAMP, incubated at 37° C., 0.1% bovine casein (no human serum albumin), geometric mean, read-out: hGCGR EC50, nM (SEM, n)): > 9950 nM
- Emax (hGLP-1R; HEK293, 0.1% bovine casein and 1.0% human serum albumin, 37° C., percent of maximal response to GLP-1(7-36)NH2, read-out: hGLP-1R Emax, % ± SEM): 89.3 ± 6.12%
- Emax (hGLP-1R; HEK293, percent of maximal response to GLP-1(7-36)NH2, 37° C., 0.1% bovine casein, arithmetic mean, read-out: hGLP-1R Emax, % ± SEM): 89.9 ± 9.41%
- EC50 (hGLP-1R; cAMP, incubated at 37° C., 0.1% bovine casein (no human serum albumin), read-out: hGLP-1R EC50, nM (SEM, n)): 0.18 nM

Structure (SMILES): CCCCCCCCCCCC(=O)N[C@@H](CCC(=O)NCCOCCOCC(=O)NCCOCCOCC(=O)NCCOCCOCC(=O)NCCCC[C@H](NC(=O)[C@H](CO)NC(=O)[C@@H]1CCCN1C(=O)[C@@H]1CCCN1C(=O)[C@@H]1CCCN1C(=O)[C@H](C)NC(=O)CNC(=O)[C@H](CO)NC(=O)[C@H](CO)NC(=O)[C@@H]1CCCN1C(=O)CNC(=O)CNC(=O)[C@H](CCC(=O)O)NC(=O)[C@@H](NC(=O)[C@H](CC(C)C)NC(=O)[C@](C)(Cc1ccc(O)cc1)NC(=O)[C@@H](CCC(=O)O)NC(=O)[C@@H](NC(=O)[C@](C)(Cc1ccccc1)NC(=O)[C@H](CCC(=O)O)NC(=O)C(C)(C)NC(=O)[C@H](CCC(N)=O)NC(=O)[C@H](C)NC(=O)[C@H](CCCCNC(=O)COCCOCCNC(=O)COCCOCCNC(=O)COCCOCCNC(=O)CC[C@H](NC(=O)CCCCCCCCCCC)C(=O)O)NC(=O)[C@H](CCCN)NC(=O)[C@H](CC(=O)O)NC(=O)[C@H](CC(C)C)NC(=O)[C@](C)(CC(C)C)NC(=O)[C@@H](NC(=O)C(C)(C)NC(=O)[C@H](Cc1ccncc1)NC(=O)[C@H](CC(=O)O)NC(=O)[C@H](CO)NC(=O)[C@@H](NC(=O)[C@](C)(Cc1ccccc1F)NC(=O)[C@@H](NC(=O)CNC(=O)[C@H](CCC(=O)O)NC(=O)C(C)(C)NC(=O)[C@@H](N)Cc1ccc(O)cc1)[C@@H](C)O)[C@@H](C)O)[C@@H](C)CC)[C@@H](C)CC)[C@@H](C)CC)C(N)=O)C(=O)O [Example 439] (H-Y[Aib]EGT[αMePhe(2-F)]TSD[4Pal][Aib]I[αMeL]LD[Orn]K([AEEA-AEEA-AEEA-γGlu-Lauroyl])AQ[Aib]E[αMeF]I[dE][αMeY]LIEGGPSSGAPPPSK([AEEA-AEEA-AEEA-γGlu-Lauroyl])-NH2)
- EC50 (hGCGR; [2]): > 9950 nM
- EC50 (hGCGR; cAMP, 37° C., 0.1% bovine casein and 1.0% human serum albumin, geometric mean (SEM, n), read-out: hGCGR EC50, nM (SEM, n)): > 9950 nM
- Emax (hGLP-1R; HEK293, cAMP, 37° C., 0.1% bovine casein and 1.0% human serum albumin, percent of maximal response to GLP-1(7-36)NH2, read-out: hGLP-1R Emax, % ± SEM): 97%
- Emax (hGLP-1R; HEK293, cAMP, 37° C., 0.1% bovine casein, percent of maximal response to GLP-1(7-36)NH2, arithmetic mean, read-out: hGLP-1R Emax, % ± SEM): 95.7%
- EC50 (hGLP-1R; [3]): 0.11 nM

Reference: patent US20230265151A1, “GIP/GLP1 CO-AGONIST COMPOUNDS” (priority 2020, published 2023)
